Results: patent US5658883A, “Biologically active TGF-β1 peptides” (Celtrix Pharmaceuticals, Inc., priority 1995, dated 1997)
Where two headings read alike, the source gives them in different places. Bridge positions count the residues as written; N and C are the ends. Ends that are not written are not given here. Peptide text beside a SMILES is read from it. I, II: the chains in the order shown.

Legend:
[1] = system: Mink lung epithelial cells (Mv1Lu CCL64); assay: Mink lung epithelial cell proliferation inhibition assay; assay type: cell-based; conditions: for ED50 (half-maximal inhibition of cell proliferation): 4 days, acid phosphatase readout
Experimental: TGF-β is known to inhibit proliferation of mink lung epithelial cells. The mink lung epithelial cell assay was thus used to test the ability of the peptides to mimic the biological activity of TGF-β. Mink lung epithelial cells (ATCC, Rockville, Md., Mv1Lu CCL64) were plated at 0.5-1.0×10^6 cells/plate in 100 mm culture plates and grown in Eagle's minimal essential medium (MEM) supplemented with 50 units/ml penicillin, 50 μg/ml streptomycin, nonessential amino acids, L-glutamine, and 10% fetal bovine serum (FBS). Cells were passaged while the cell density was subconfluent. Cells were detached with trypsin, collected by centrifugation at 800×g for 2 min, and resuspended in the culture medium at 20,000 cells/ml. The cells were plated in 96-well microtiter plates at 1000 cells (50 μl)/well. Peptides TGF-β116-31, TGF-β116-47, TGF-β216-31, TGF-β216-47 in monomeric and dimeric forms were lyophilized in the presence of sterile bovine serum albumin (BSA) carrier. Samples (50 μl) of the peptides were dissolved in the cell culture medium and added to the wells in triplicate. Recombinant human TGF-β2 was used as the standard. The plates were incubated under a 5% CO2 /95% (V/V) air atmosphere at 37° C. for 4 days. The number of cells/well in this assay is proportional to the activity of the constitutively expressed enzyme, acid phosphatase. To measure acid phosphatase activity, the wells were rinsed with phosphate-buffered saline (PBS), filled with 100 μl of 0.1M sodium acetate, pH 5.5/0.1% Triton X-100/100 mM p-nitrophenyl phosphate, and the plates were incubated at 37° C. for 2 hr. Ten μl of 1.0N NaOH was added to each well, and after 20 min at room temperature, the absorbance at 405 nm was measured.

murine thymocytes = assay: Inhibition of murine thymocyte proliferation (3H-thymidine incorporation); assay type: cell-based, C3H/HeJ mice
Experimental: In order to determine the effect of the peptides on proliferation of cell types other than mink lung epithelial cells, murine thymocytes were exposed to the peptides. Proliferation was measured by determining the amount of ^3 H-thymidine incorporated into the thymocyte DNA in response to the peptides. The cell culture assay was performed as described by Ellingsworth et al., Cell. Immunol., 114:41-54 (1988). Single-cell suspensions of thymocytes were prepared from 4 to 8 week old C3H/HeJ mice and the cells were suspended in Eagle's MEM supplemented with 5% fetal calf serum (FCS), 100 units/ml penicillin, 100 μg/ml streptomycin, 2 mM L-glutamine and 50 μM β-mercaptoethanol to 6.66×10^6 cells/ml. The thymocytes were plated into 96-well microtiter plates at 10^6 cells/well (150 μl). The cells were activated with 1.0 μg/ml of phytohemagglutinin and 8 units/ml of interleukin-1 (IL-1) (Boehringer Mannheim, Indianapolis, Ind.). […] The cells were incubated at 37° C. for 72 hr in a humidified incubator in 5% CO2 -95% air atmosphere. The cells were pulsed with 0.5 μCi/well of ^3 H-thymidine 24 hours prior to cell harvest. The thymocytes were harvested onto glass fiber filters and dried. The amount of ^3 H-thymidine incorporation was determined by liquid scintillation counting method.

TGF-β receptor [2] = conditions: for competing against the binding of 125I-TGF-β1: at concentrations of up to 30 μM
Experimental: (§1) Rat muscle myoblasts (L6, American Type Culture Collection) were plated in 6-well culture plates and cultured in DMEM supplemented with 100 units/ml penicillin, 100 μg/ml streptomycin, 2 mM L-glutamine, 10% FBS until the cells were 70-90% confluent. Medium was aspirated from the wells; and 1 ml of ice cold 20 mM glycine, 135 mM NaCl, pH 3.0 was added to each well for 2 min. The buffer was aspirated and each well was rinsed 2 times with 1 ml of DMEM, 25 mM Hepes, pH 7.4, 0.1% BSA. […] Radiolabeled TGF-β samples (500 μl ) either without unlabeled TGF-β or with excess unlabeled TGF-β (20-25 nM) were prepared and added to other wells. After 1 hr incubation at room temperature, each well was rinsed 2 times with 1 ml of Hank's balanced saline solution, 0.1% BSA. To each well, 500 μl of 1% Triton X-100, 10% glycerol, 20 mM Hepes, pH 7.4, 0.01% BSA was added and incubated at 37° C. with rotation for 30 min to lyse the cells. Samples were transferred into gamma-counting vials and counted for 1 min each.

TGF-β receptor [3] = system: TGF-β receptor
Experimental: as §1

tumor cell proliferation = conditions: in vitro assays, generally observed; cited from earlier work
[4] = PHA and IL-1 activated thymocytes, 72 hr
[5] = 25 pM 125I-TGF-β2, L6 cells, 1 hr room temperature

Molecule: CVRQLYIDFRKDLGWKWIHEPKGYHANFCLGP [TGF-β116-47 trimer] (cysteine pairing not given here; also: trimer)
- ED50 (half-maximal inhibition of cell proliferation) [1]: 32.7 nM

Molecule: TGF-β2: full length transforming growth factor β2, used as the standard
- ED50 (inhibition of 3H-thymidine incorporation) (murine thymocytes; [4]): approximately 4 pM

Molecule: CVRQLYIDFRKDLGWKWIHEPKGYHANFCLGP [TGF-β116-47 monomer]
- ED50 / activity in words [1]: some activity
- ED50 (half-maximal inhibition of cell proliferation) [1]: 1000 nM
- ED50 (competition against binding of 125I-TGF-β1), in words (TGF-β receptor [2]; 25 pM 125I-TGF-β1, L6 cells): not active
- competing against the binding of 125I-TGF-β1 (TGF-β receptor [2]): either inactive or weakly active

Molecule: TGF-β1: full length transforming growth factor β1
- ED50 (competition against binding of 125I-TGF-β1) (TGF-β receptor [2]; 25 pM 125I-TGF-β1, L6 cells, 1 hr room temperature): 0.01 to 0.03 nM
- Kd (TGF-β receptor [2]; read-out: apparent dissociation constant, estimated from competitive binding data, 125I-TGF-β1): 0.01 to 0.03 nM

Molecule: CLRPLYIDFKRDLGWK [TGF-β216-31]
- activity in thymocyte proliferation assay (murine thymocytes): inactive
- ED50 / activity in words [1]: inactive
- ED50 (competition against binding of 125I-TGF-β2), in words (TGF-β receptor [3]; 25 pM 125I-TGF-β2, L6 cells): inactive

Molecule: TGF-β
- concentration at which saturation is achieved (tumor cell proliferation): 10 ng/mL
- concentration for 50% inhibition of tumor cell proliferation (tumor cell proliferation): ~0.2 ng/mL

Molecule: CC[C@H](C)[C@H](NC(=O)[C@H](Cc1ccc(O)cc1)NC(=O)[C@H](CC(C)C)NC(=O)[C@H](CCC(N)=O)NC(=O)[C@H](CCCNC(=N)N)NC(=O)[C@@H](NC(=O)[C@@H](N)CSSC[C@H](N)C(=O)N[C@H](C(=O)N[C@@H](CCCNC(=N)N)C(=O)N[C@@H](CCC(N)=O)C(=O)N[C@@H](CC(C)C)C(=O)N[C@@H](Cc1ccc(O)cc1)C(=O)N[C@H](C(=O)N[C@@H](CC(=O)O)C(=O)N[C@@H](Cc1ccccc1)C(=O)N[C@@H](CCCNC(=N)N)C(=O)N[C@@H](CCCCN)C(=O)N[C@@H](CC(=O)O)C(=O)N[C@@H](CC(C)C)C(=O)NCC(=O)N[C@@H](Cc1c[nH]c2ccccc12)C(=O)N[C@@H](CCCCN)C(=O)O)[C@@H](C)CC)C(C)C)C(C)C)C(=O)N[C@@H](CC(=O)O)C(=O)N[C@@H](Cc1ccccc1)C(=O)N[C@@H](CCCNC(=N)N)C(=O)N[C@@H](CCCCN)C(=O)N[C@@H](CC(=O)O)C(=O)N[C@@H](CC(C)C)C(=O)NCC(=O)N[C@@H](Cc1c[nH]c2ccccc12)C(=O)N[C@@H](CCCCN)C(=O)O [TGF-β116-31 dimer] (I: H-CVRQLYIDFRKDLGWK-OH / II: H-CVRQLYIDFRKDLGWK-OH; disulfide I:1-II:1)
- ED50 (competition against binding of 125I-TGF-β2) (TGF-β receptor [3]): 10000 to 15000 nM
- ED50 (competition against binding of 125I-TGF-β1) (TGF-β receptor [2]): 10000 to 15000 nM

Molecule: CC[C@H](C)[C@H](NC(=O)[C@H](Cc1ccc(O)cc1)NC(=O)[C@H](CC(C)C)NC(=O)[C@@H]1CCCN1C(=O)[C@H](CCCNC(=N)N)NC(=O)[C@H](CC(C)C)NC(=O)[C@@H](N)CSSC[C@H](N)C(=O)N[C@@H](CC(C)C)C(=O)N[C@@H](CCCNC(=N)N)C(=O)N1CCC[C@H]1C(=O)N[C@@H](CC(C)C)C(=O)N[C@@H](Cc1ccc(O)cc1)C(=O)N[C@H](C(=O)N[C@@H](CC(=O)O)C(=O)N[C@@H](Cc1ccccc1)C(=O)N[C@@H](CCCCN)C(=O)N[C@@H](CCCNC(=N)N)C(=O)N[C@@H](CC(=O)O)C(=O)N[C@@H](CC(C)C)C(=O)NCC(=O)N[C@@H](Cc1c[nH]c2ccccc12)C(=O)N[C@@H](CCCCN)C(=O)O)[C@@H](C)CC)C(=O)N[C@@H](CC(=O)O)C(=O)N[C@@H](Cc1ccccc1)C(=O)N[C@@H](CCCCN)C(=O)N[C@@H](CCCNC(=N)N)C(=O)N[C@@H](CC(=O)O)C(=O)N[C@@H](CC(C)C)C(=O)NCC(=O)N[C@@H](Cc1c[nH]c2ccccc12)C(=O)N[C@@H](CCCCN)C(=O)O [TGF-β216-31 dimer] (I: H-CLRPLYIDFKRDLGWK-OH / II: H-CLRPLYIDFKRDLGWK-OH; disulfide I:1-II:1)
- ED50 (competition against binding of 125I-TGF-β2) (TGF-β receptor [3]): 30000 nM

Molecule: CLRPLYIDFKRDLGWKWIHEPKGYNANFCAGA [TGF-β216-47 monomer]
- ED50 / activity in words [1]: not active
- ED50 (competition against binding of 125I-TGF-β2) (TGF-β receptor [3]; [5]): 30000 nM
- competing against the binding of 125I-TGF-β2 (TGF-β receptor [3]; at concentrations of up to 30 μM): either inactive or weakly active

B1: CVRQLYIDFRKDLGWKWIHEPKGYHANFCLGP [TGF-β116-47 dimer] (peptide)
chain 1: CVRQLYIDFRKDLGWKWIHEPKGYHANFCLGP
chain 2: CVRQLYIDFRKDLGWKWIHEPKGYHANFCLGP
modifications: disulfide (positions not given here); also: disulfide-bonded homodimer, Cys pairing not given here
- ED50 (competition against binding of 125I-TGF-β1), in words (TGF-β receptor [2]; 25 pM 125I-TGF-β1, L6 cells): not active
- competing against the binding of 125I-TGF-β1 (TGF-β receptor [2]): either inactive or weakly active

B2: CLRPLYIDFKRDLGWKWIHEPKGYNANFCAGA [TGF-β216-47 dimer] (peptide)
chain 1: CLRPLYIDFKRDLGWKWIHEPKGYNANFCAGA
chain 2: CLRPLYIDFKRDLGWKWIHEPKGYNANFCAGA
modifications: disulfide (positions not given here); also: disulfide-bonded homodimer, Cys pairing not given here
- ED50 (inhibition of thymocyte proliferation) (murine thymocytes; [4]): 57 nM
- ED50 (half-maximal inhibition of cell proliferation) [1]: 4 to 14 nM
- fold more activity than dimerized TGF-β116-47 ([1]; from ED50): 11-38 fold
- ED50 (competition against binding of 125I-TGF-β2) (TGF-β receptor [3]; [5]): 3000 nM
- Kd (TGF-β receptor [3]; read-out: apparent dissociation constant, estimated from competitive binding data, 125I-TGF-β2): ~3000 nM
